PubChem BioAssay AID1259411 (Chemical Carcinogenesis Research Information System (CCRIS), 2018)
Active and inactive are the calls of the source. No rule for the calls is given here.

Tested on: rodent carcinogenicity bioassays, tumor incidence
Test: CCRIS carcinogenicity studies
In short: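 NCI-built, expert-reviewed records of carcinogenicity and related test outcomes (mutagenicity, tumor promotion/inhibition) compiled from published and report sources, historical span 1985-2011, not updated.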

With `CC(=O)CN(CC(C)=O)N=O` the carcinogen call (Species: GUINEA PIG, Strain/Sex: STRAIN-13/MALE, Route: SUBCUTANEOUS, Dose: 70 MG/KG/WK FOR 2 WK FOLLOWED BY 1 WK NO TREATMENT THEN 20 MG/KG/WK FOR 2 WK, Tumor Site: Type of Lesion: LIVER: CHOLANGIOMA, CHOLANGIOCARCINOMA) was “active; positive”, the carcinogen call (Species: HAMSTER, Strain/Sex: SYRIAN/FEMALE, Route: SUBCUTANEOUS, Dose: 2.5, 5, 10 MG/KG, Dose: 2.5, 5, 10 MG/KG, Tumor Site: Type of Lesion: PANCREAS: DUCTAL ADENOMA, INTRADUCTAL CARCINOMA, ADENOCARCINOMA, LUNG: ADENOMA, ADENOCARCINOMA, SQUAMOUS CELL CARCINOMA;, Tumor Site: Type of Lesion: PANCREAS: DUCTAL ADENOMA, INTRADUCTAL CARCINOMA, ADENOCARCINOMA, LUNG: ADENOMA, ADENOCARCINOMA, SQUAMOUS CELL CARCINOMA) was “active; positive” and the carcinogen call (Species: HAMSTER, Strain/Sex: SYRIAN/MALE,FEMALE, Route: ORAL, Dose: 0.35, 0.7, 1.4% IN DRINKING WATER, Dose: 0.35, 0.7, 1.4% IN DRINKING WATER, Tumor Site: Type of Lesion: LIVER: CHOLANGIOMA, INTRADUCTAL CARCINOMA, CHOLANGIOCARCINOMA, GALL BLADDER: POLYP, COMMON BILE DUCT: POLYP, COMMON DUCT, Tumor Site: Type of Lesion: LIVER: CHOLANGIOMA, INTRADUCTAL CARCINOMA, CHOLANGIOCARCINOMA, GALL BLADDER: POLYP, COMMON BILE DUCT: POLYP, COMMON DUCT) was “active; positive”. The carcinogen call (Species: HAMSTER, Strain/Sex: SYRIAN/MALE, Route: SUBCUTANEOUS, Dose: 2.5, 5, 10 MG/KG, Dose: 2.5, 5, 10 MG/KG, Tumor Site: Type of Lesion: PANCREAS: DUCTAL ADENOMA, INTRADUCTAL CARCINOMA, ADENOCARCINOMA, LUNG: ADENOMA, ADENOCARCINOMA, GALL BLADDER: PAPILLARY, Tumor Site: Type of Lesion: PANCREAS: DUCTAL ADENOMA, INTRADUCTAL CARCINOMA, ADENOCARCINOMA, LUNG: ADENOMA, ADENOCARCINOMA, GALL BLADDER: PAPILLARY) was “active; positive”, the carcinogen call (Species: MOUSE, Strain/Sex: ICR/FEMALE, Route: SUBCUTANEOUS, Dose: 0, 10, 20, 40 MG/KG BW IN 1% GELATIN SOLUTION ON DAYS 1, 8, 15 AND 22 OF AGE (STUDY DURATION: 1 YR), Dose: 0, 10, 20, 40 MG/KG BW IN 1% GELATIN SOLUTION ON DAYS 1, 8, 15 AND 22 OF AGE (STUDY DURATION: 1 YR), Tumor Site: Type of Lesion: NASAL CAVITY: TUMOR, LUNG: TUMOR, LIVER: TUMOR, Tumor Site: Type of Lesion: NASAL CAVITY: TUMOR, LUNG: TUMOR, LIVER: TUMOR) was “active; positive” and the carcinogen call (Species: MOUSE, Strain/Sex: ICR/MALE, Route: SUBCUTANEOUS, Dose: 0, 10, 20, 40 MG/KG BW IN 1% GELATIN SOLUTION ON DAYS 1, 8, 15 AND 22 OF AGE (STUDY DURATION: 1 YR), Dose: 0, 10, 20, 40 MG/KG BW IN 1% GELATIN SOLUTION ON DAYS 1, 8, 15 AND 22 OF AGE (STUDY DURATION: 1 YR), Tumor Site: Type of Lesion: NASAL CAVITY: TUMOR, LUNG: TUMOR, LIVER: TUMOR, Tumor Site: Type of Lesion: NASAL CAVITY: TUMOR, LUNG: TUMOR, LIVER: TUMOR) was “active; positive”. The carcinogen call (Species: RAT, Strain/Sex: CD-1/FEMALE, Route: SUBCUTANEOUS, Dose: 0, 5.35, 10.7, 21.4 MG/KG 1/WK FOR LIFE (STUDY DURATION: LIFE), Dose: 0, 5.35, 10.7, 21.4 MG/KG 1/WK FOR LIFE (STUDY DURATION: LIFE), Tumor Site: Type of Lesion: NASAL CAVITY: TUMOR) was “active; positive”, the carcinogen call (Species: RAT, Strain/Sex: CD-1/MALE, Route: SUBCUTANEOUS, Dose: 0, 6.15, 12.3, 24.6 MG/KG 1/WK FOR LIFE (STUDY DURATION: LIFE), Dose: 0, 6.15, 12.3, 24.6 MG/KG 1/WK FOR LIFE (STUDY DURATION: LIFE), Tumor Site: Type of Lesion: NASAL CAVITY: TUMOR) was “active; positive” and the carcinogen call (Species: RAT, Strain/Sex: F344/FEMALE, Route: INTRAVESICULAR, Dose: 0, 0.8 MG IN 0.2 ML ETHANOL: DEIONIZED WATER (1:3) 2/WK FOR 30 WK (TOTAL DOSE 0.3 MMOL) (STUDY DURATION: LIFESPAN), Tumor Site: Type of Lesion: BLADDER: TRANSITIONAL CELL CARCINOMA, TRANSITIONAL CELL PAPILLOMA, LUNG: TUMOR, KIDNEY: MESENCHYMAL NEOPLASM, LIVER: TUM, Tumor Site: Type of Lesion: BLADDER: TRANSITIONAL CELL CARCINOMA, TRANSITIONAL CELL PAPILLOMA, LUNG: TUMOR, KIDNEY: MESENCHYMAL NEOPLASM, LIVER: TUM) was “active; positive”. For the same compound, the carcinogen call (Species: RAT, Strain/Sex: F344/FEMALE, Route: ORAL, Dose: 0, 55 MG/L DRINKING WATER 5 D/WK FOR 50 WK (TOTAL DOSE 275 MG) (STUDY DURATION: LIFESPAN), Tumor Site: Type of Lesion: LIVER: CARCINOMA, ANGIOSARCOMA, LUNG: TUMOR) was “active; positive”, the carcinogen call (Species: RAT, Strain/Sex: F344/FEMALE, Route: SUBCUTANEOUS, Dose: 0, 10 MG/KG/BW 2/WK FOR A TOTAL OF 11 DOSES BEGINNING AT 2 D OF AGE (STUDY DURATION: 26 WK), Tumor Site: Type of Lesion: LIVER: HEPATOCELLULAR CARCINOMA, KIDNEY: NEPHROBLASTOMA) was “active; positive” and the carcinogen call (Species: RAT, Strain/Sex: F344/MALE, Route: SUBCUTANEOUS, Dose: 0, 10 MG/KG/BW 2/WK FOR A TOTAL OF 11 DOSES BEGINNING AT 2 D OF AGE (STUDY DURATION: 26 WK), Tumor Site: Type of Lesion: LIVER: HEPATOCELLULAR CARCINOMA, KIDNEY: NEPHROBLASTOMA, TESTIS: GONADAL STROMAL TUMOR, Tumor Site: Type of Lesion: LIVER: HEPATOCELLULAR CARCINOMA, KIDNEY: NEPHROBLASTOMA, TESTIS: GONADAL STROMAL TUMOR) was “active; positive”. For the same compound, the carcinogen call (Species: RAT, Strain/Sex: MRC/MALE,FEMALE, Route: SUBCUTANEOUS, Dose: 2.5, 5, 10 MG/KG, Dose: 2.5, 5, 10 MG/KG, Tumor Site: Type of Lesion: THYROID GLAND: FOLLICULAR ADENOMA, CARCINOMA) was “active; positive”, the carcinogen call (Species: RAT, Strain/Sex: SPRAGUE-DAWLEY/FEMALE, Route: SUBCUTANEOUS, Dose: 0, 5.35, 10.7, 21.4 MG/KG BW IN 0.9% SALINE 1/WK FOR DURATION OF STUDY (STUDY DURATION: 96 WK), Dose: 0, 5.35, 10.7, 21.4 MG/KG BW IN 0.9% SALINE 1/WK FOR DURATION OF STUDY (STUDY DURATION: 96 WK), Tumor Site: Type of Lesion: KIDNEY (RENAL PELVIS): TUMOR, URETER: TUMOR, URINARY BLADDER: TUMOR, Tumor Site: Type of Lesion: KIDNEY (RENAL PELVIS): TUMOR, URETER: TUMOR, URINARY BLADDER: TUMOR) was “active; positive” and the carcinogen call (Species: RAT, Strain/Sex: SPRAGUE-DAWLEY/MALE, Route: SUBCUTANEOUS, Dose: 0, 6.15, 12.3, 24.6 MG/KG BW IN 0.9% SALINE 1/WK FOR DURATION OF STUDY (STUDY DURATION: 96 WK), Dose: 0, 6.15, 12.3, 24.6 MG/KG BW IN 0.9% SALINE 1/WK FOR DURATION OF STUDY (STUDY DURATION: 96 WK), Tumor Site: Type of Lesion: KIDNEY (RENAL PELVIS): TUMOR, URINARY BLADDER: TUMOR) was “active; positive”.

`Nc1ccc(N)c2c1C(=O)c1c(N)ccc(N)c1C2=O` was tested, and the carcinogen call (Species: MOUSE, Strain/Sex: B6C3F1/FEMALE, Route: ORAL, Dose: 0, 600, 1200, 2500 PPM IN DIET FOR 104 WK (STUDY DURATION: 105 WK), Dose: 0, 600, 1200, 2500 PPM IN DIET FOR 104 WK (STUDY DURATION: 105 WK)) was “inactive; negative”, the carcinogen call (Species: MOUSE, Strain/Sex: B6C3F1/MALE, Route: ORAL, Dose: 0, 600, 1200, 2500 PPM IN DIET FOR 104 WK (STUDY DURATION: 105 WK), Dose: 0, 600, 1200, 2500 PPM IN DIET FOR 104 WK (STUDY DURATION: 105 WK), Tumor Site: Type of Lesion: LIVER: HEPATOCELLULAR ADENOMA OR CARCINOMA, LUNG: ALVEOLAR/BRONCHIOLAR ADENOMA OR CARCINOMA) was “equivocal” and the carcinogen call (Species: RAT, Strain/Sex: F344/FEMALE, Route: ORAL, Dose: 0, 1250, 2500, 5000 PPM IN DIET FOR 103 WK (STUDY DURATION: 105 WK), Dose: 0, 1250, 2500, 5000 PPM IN DIET FOR 103 WK (STUDY DURATION: 105 WK), Tumor Site: Type of Lesion: URINARY BLADDER: SQUAMOUS CELL PAPILLOMA, SQUAMOUS CELL CARCINOMA, TRANSITIONAL CELL PAPILLOMA, TRANSITIONAL CELL CARCIN) was “active; positive”. For the same compound, the carcinogen call (Species: RAT, Strain/Sex: F344/MALE, Route: ORAL, Dose: 0, 1250, 2500, 5000 PPM IN DIET FOR 103 WK (STUDY DURATION: 105 WK), Dose: 0, 1250, 2500, 5000 PPM IN DIET FOR 103 WK (STUDY DURATION: 105 WK), Tumor Site: Type of Lesion: URINARY BLADDER: SQUAMOUS CELL PAPILLOMA, SQUAMOUS CELL PAPILLOMA OR CARCINOMA, TRANSITIONAL CELL PAPILLOMA, TRANSITIONA) was “active; positive”.
